Measured values from patent US20250288575A1, “EYE DROP COMPOSITION FOR PREVENTION OR TREATMENT OF OPHTHALMIC DISEASES AND PREPARATION METHOD THEREFOR” (OCUMENSION THERAPEUTICS (SUZHOU) CO., LTD., priority 2021, published 2025).

Assay: Antimicrobial efficacy testing (AET) of atropine sulfate eye drops (0.01%) with different BAK concentrations
Method: The concentration of benzalkonium chloride (BAK) in atropine sulfate eye drops was verified via antimicrobial efficacy testing (AET). The lyophilized preparation was reconstituted with 8 mL of reconstituted diluent including BAK at concentrations of 100 ppm, 80 ppm, 50 ppm, 25 ppm, or 0 ppm to obtain atropine sulfate eye drops (0.01%) including benzalkonium chloride at different concentrations.

[1] = BAK 0 ppm in atropine sulfate eye drops (0.01%)
[2] = BAK 25 ppm in atropine sulfate eye drops (0.01%)
[3] = BAK 50 ppm in atropine sulfate eye drops (0.01%)
[4] = BAK 80 ppm in atropine sulfate eye drops (0.01%)
[5] = BAK 100 ppm in atropine sulfate eye drops (0.01%)

benzalkonium chloride [BAK]
AET, Chinese Pharmacopoeia Method, Criteria A&B [1]: Fail | AET, European Pharmacopoeia Method, Criteria A&B [1]: Fail | AET, United States Pharmacopeia Method [1]: Fail | AET, Chinese Pharmacopoeia Method, Criteria A&B [2]: Pass | AET, European Pharmacopoeia Method, Criteria A&B [2]: Pass | AET, United States Pharmacopeia Method [2]: Pass | AET, Chinese Pharmacopoeia Method, Criteria A&B [3]: Pass | AET, European Pharmacopoeia Method, Criteria A&B [3]: Pass | AET, United States Pharmacopeia Method [3]: Pass | AET, Chinese Pharmacopoeia Method, Criteria A&B [4]: Pass | AET, European Pharmacopoeia Method, Criteria A&B [4]: Pass | AET, United States Pharmacopeia Method [4]: Pass | AET, Chinese Pharmacopoeia Method, Criteria A&B [5]: Pass | AET, European Pharmacopoeia Method, Criteria A&B [5]: Pass | AET, United States Pharmacopeia Method [5]: Pass | results of the antibacterial efficacy testing (all tested BAK concentrations (100, 80, 50, 25 ppm) except 0 ppm): met the criteria | antibacterial efficacy criteria "A", Chinese Pharmacopoeia, during long-term storage (benzalkonium chloride concentration greater than 70 ppm): criteria requirements of antibacterial efficacy “A” were met
